Here are results for one molecule from patent publication US20250242340A1, “SABRE CATALYSTS CONTAINING FLUORINATED CARBON CHAINS FOR DELIVERY OF METAL-FREE MRI CONTRAST AGENTS” (The United States of America, as represented by the …, priority 2022, published 2025).

A short description of series [1]: Relaxation dynamics of hyperpolarized [1-13C]pyruvate in fluorous mixture (Example 25). The series is classed as physicochemical. The settings on record: fluorous mixture NFBME/MeOD. An excerpt:
(§1) In addition, the relaxation dynamics of the [1-^13C]pyruvate were also studied.
In addition, relaxation dynamics at earth field and 1.8 T are about the same as a non-fluorinated SABRE catalyst T1=9.0±1.9 s and 16.0±1.4 s, respectively.

Series [2] is classed as physicochemical. From the text: Parahydrogen was generated using a Gas-Delivery Manifold. Ultra-high-purity hydrogen gas (Airgas) was fed into a ParaHydrogen flow cryostat (Xeus technology LTD) and enriched to about 50% parahydrogen in the presence of a spin-exchange catalyst (Fe2O3) at liquid nitrogen temperature (77K). […] The entire pH2 line was pressurized to 100 psi.
The magnetic shield condition was as follows. […] The shield was degaussed using internal homebuilt coils driven by a Variac when necessary.
MR experiments were performed using a 1 T Magritek Spinsolve benchtop NMR spectrometer.
FIG. 6 depicts, in the top curve, a single-scan HP ^13C spectrum obtained for the hyperpolarized probe. […] Enhancement is ε˜9000 and polarization is about P(^13C)˜1%.
All experiments were performed with the solution containing fluorinated catalyst, co-ligand (phenyl trifluoromethyl sulfoxide) and [1-^13C]Pyruvate in 0.6 mL CD3OD. The ratio and concentration can be further adjusted to attain better enhancement and polarization. […] The experiments were performed at room temperature, ˜100 scc/m p-H2 flow rate and 96 PSI p-H2 overpressure. The parahydrogen used in this example came from a low-cost 50% p-H2 generator. Each experiment, the p-H2 bubbling was applied for ˜1 min, the sample was quickly transferred to the 1 T NMR spectrometer for detection and the sample was then returned to the mu-metal shield to continue p-H2 bubbling for the next experiment.

Series [3] is described as follows: Isolation of hyperpolarized pyruvate by D2O precipitation of the catalyst and filtration (Example 8). It is filed as physicochemical. The settings on record: 20% v/v D2O added, Oasis Prime HLB filter, 1.8 T NMR, procedure about 1.15 to 1.30 minutes. As for the experimental part:
The parahydrogen flow rate was established at 90 scc/m and pressurized to 8 bars, the mixing field was 0.4 μT, and the temperature was 0° C.
After the hyperpolarization procedure was completed, the sample was rapidly removed from the 0.40 μT field, depressurized, and 20% in volume (125 μL) of D2O was added to the solution to precipitate the perfluorinated SABRE catalyst.

Series [4] in a line: Biphasic extraction of hyperpolarized pyruvate into D2O from NFBME/MeOD (Example 26). Conditions: after addition of 400 μL D2O to NFBME/MeOD sample (emulsion, bound and free pyruvate), catalyst of Example 4, 1.8 T, room temperature. The series is classed as physicochemical. As for the experimental part: The hyperpolarization procedure of Example 6 was repeated using a mixture of nonafluorobutyl methyl ether (NFBME) and deuterated methanol instead of only deuterated methanol.
After the hyperpolarization procedure was completed, the sample was rapidly removed from the 0.40 μT field and transferred inside the NMR spectrometer at 1.8 T at room temperature. The NMR sample was depressurized and 400 μL of D2O was added to the solution in order to drive the hyperpolarized sodium [1-^13C]pyruvate into the aqueous phase.

The format of series [5] is physicochemical. Conditions: 23 mM sodium [1-13C]pyruvate, 7.4 mM catalyst of Example 4, 46 mM DMSO, 0.2 mL NFBME + 0.2 mL MeOD, 90 scc/m, 110 PSI, 0.4 μT, 0 °C.
A short description of series [6]: Relaxation dynamics of hyperpolarized [1-13C]pyruvate in methanol (Example 7). The series is classed as physicochemical.
From the text: as §1
In addition, relaxation dynamics at earth field and 1.8 T are about the same as a non-fluorinated SABRE catalyst T1=28.9±1.6 s and 66.5±7 s, respectively.

The format of series [7] is physicochemical. The settings on record: 20 mM sodium [1-13C]pyruvate, 7.6 mM catalyst shown in Scheme 4, 50 mM DMSO, CD3OD, 0.4 μT, 5 °C, 110 psi, 90 scc/m, 1.8 T. As to the method: (§2) The SABRE samples were prepared in CD3OD, using 20 mM sodium [1-^13C]pyruvate, 7.6 mM perfluorinated SABRE catalyst shown in Scheme 4, and 50 mM dimethyl sulfoxide (DMSO), as described in Examples 6 and 7. The SABRE samples were exposed to the SABRE-SHEATH hyperpolarization conditions with the same set-up and optimum conditions described in Examples 6 and 7. The NMR tubes were pressurized (110 psi, i.e., approximately 8 bar total pressure) with p-H2 bubbling through the solution at a flow of 90 scc/m to activate the catalyst and to ^13C-hyperpolarize the sodium [1-^13C]pyruvate solution. Activation of the catalyst took place for about 15 minutes at ambient temperature and magnetic field. For polarization build-up, the sample was placed in the magnetic field (typically about 0.4 μT) and a water bath at 5° C. to regulate the reaction temperature. The spectrum was acquired immediately following manual sample transfer to a 1.8 T benchtop NMR after 5 seconds, and the results are set forth in the top spectrum of FIG. 17.

The format of series [8] is physicochemical. Conditions: 40 mM sodium [1-13C]pyruvate, 6.6 mM catalyst of Example 16, 50 mM DMSO, CD3OD, 0.4 μT, 5 °C, 110 psi, 90 scc/m, 1.8 T. As for the experimental part:
as §2, with “40” for “20”, “6.6” for “7.6”, “of Example 16,” for “shown in Scheme 4,”, “16.” for “17.”

Series [9] is described as follows: Precipitation of HP pyruvate with ethyl acetate and reconstitution in D2O (Example 9). The settings on record: after EtOAc precipitation and reconstitution in water (D2O); 7.5 mM fluorinated catalyst, 50 mM DMSO, 20-30 mM pyruvate, 1.8 T. It is filed as physicochemical. As for the experimental part:
Precipitation and redissolution of HP [1-^13C]pyruvate, which takes place in the same NMR tube where hyperpolarization, was performed (Schmidt et al., ACS Sensors, 7(11), 3430-3439 (2022)). The SABRE samples were prepared in CD3OD, using between 20 and 30 mM sodium [1-^13C]pyruvate, 7.5 mM fluorinated SABRE catalyst, and 50 mM dimethyl sulfoxide (DMSO), as described in Examples 6 and 7. 100 μL of this solution was transferred into 5 mm NMR tube and exposed to the SABRE-SHEATH hyperpolarization conditions with the same set-up and optimum conditions described in Examples 6 and 7. The solution was located inside a 3-layer mu-metal of 3″ I.D. and 9″ depth to shield external magnetic fields, combined with a custom-made solenoid to generate a static magnetic field B0 of 0.4 μT. The NMR tubes were pressurized (110 psi, i.e., approximately 8 bar total pressure) with p-H2 bubbling through the solution at a flow of 90 scc/m to activate the catalyst and to ^13C-hyperpolarize the sodium [1-^13C]pyruvate solution. Activation of the catalyst took place for 15 min at ambient temperature and magnetic field. For polarization build-up, the sample was placed in the static magnetic field (typically about 0.4 μT) and a water bath to regulate the reaction temperature at 0° C. After polarization, the NMR tube was rapidly transferred inside the NMR spectrometer at 1.8 T and kept at room temperature. […]

Series [10] is described as follows: Re-use of the fluorous catalyst mixture for pyruvate hyperpolarization (Example 26). It is filed as physicochemical. Conditions: re-used catalyst mixture from 4 days earlier, fresh 23 mM pyruvate and 47 mM DMSO in 0.2 mL CD3OD.
From the text: The fluorous mixture containing the perfluorinated SABRE catalyst in NFBME and MeOD was re-used for further sodium [1-^13C]pyruvate hyperpolarization.
Where [11] appears, read: Example 5 text: 8 mM fluorinated catalyst (Example 4), 16 mM PTFSO, 30 mM [1-13C]pyruvate, 0.6 mL CD3OD, room temperature, ~100 scc/m, 96 PSI, 50% p-H2, 1 T NMR.
Where [12] appears, read: FIG. 6 legend: 30 mM sodium [1-13C]pyruvate, 42 mM PTFSO, 7.8 mM Ir-F-IMes, deuterated methanol, 55 s 50% p-H2 bubbling, BT=−0.7 μT, 1 T NMR.

The structures appear in SMILES notation. Where two headings read alike, the source gives them in different places.

In the case of `CC(=O)C(=O)O` [[1-^13C]pyruvate, Sodium [1-^13C]-pyruvate], the T1 in series [1] (1.8 T) was determined as 16.0 ± 1.4 s; in [1] (relaxation at 0.4 μT), 11.3 ± 1.3 s; in [6] (catalyst of Example 4, 1.8 T), 66.5 ± 7 s; in [6] (catalyst of Example 4, Earth's field), 28.9 ± 1.6 s; in [6] (catalyst of Example 4, relaxation at 0.4 μT), 16.1 ± 0.9 s. In addition, the “13C signal enhancement ε” value in series [2] (setting [11]) is around 9000; in series [2] (setting [12]) it was around 1250; in series [4], around 10800 fold; in series [5], around 38600 fold; in series [7] it was around 19000 fold; in series [8], around 16900 fold. Moreover, the “13C signal enhancement ε” value in series [9] was around 9000 fold; in series [10] it was around 3090 fold. The “polarization P(13C)” value in series [2] (setting [11]) is around 1%; in series [2] (setting [12]) it was around 0.1%. Besides, the “HP 13C signal after catalyst precipitation and filtration” value in series [3] was “no HP ^13C signal was observed in any sample”. In addition, the P13C in [4] was around 1.68%; in series [5] it was around 6.02%; in series [7], around 4.91%; in [8], around 2.17%; in series [9] it was around 2.17%; in series [10], around 0.48%.
